Measured values as given in patent US4786633A, “Cephalosporin compounds” (Tanabe Seiyaku Co., Ltd., priority 1986, dated 1988).
Converted amounts (≈) assume the structure as drawn.

Tests used:
[1] = tested on: Pseudomonas aeruginosa PI-67; assay: Protective effects on bacterial infections in mice (Pseudomonas aeruginosa PI-67); format: in vivo; details: PI67, im, 168 h, intraperitoneal challenge, compound intramuscularly one hour after infection, survival 7 days after infection, probit analysis, read-out: ED50 (median effective dose)
Experimental: (§1) (Protective effects on bacterial infections in mice) Ten mice weighing 20±1 g were used for each dose level. Mice were challenged via the intraperitoneal route with sufficient bacteria to kill all non-treated mice within 24 hours. All bacteria were suspended in a physiological saline solution containing 6% mucin. A test compound was administered intramuscularly one hour after the infection. Survival ratios were determined 7 days after the infection. The median effective doses (ED50, mg/kg) of the test compound were estimated by the probit analysis.

[2] = tested on: Staphylococcus aureus Smith; assay: Protective effects on bacterial infections in mice (Staphylococcus aureus Smith); format: in vivo; details: im, 168 h, intraperitoneal challenge, compound intramuscularly one hour after infection, survival 7 days after infection, probit analysis, read-out: ED50 (median effective dose)
Experimental: as §1

[3] = tested on: Staphylococcus aureus Smith; assay: Antimicrobial activity in vitro (MIC, standard agar plate dilution method); format: cell-based; details: Mueller-Hinton agar, read-out: M.I.C. (minimum inhibitory concentration)
Experimental: (§2) (Antimicrobial activity in vitro)
(§3) The minimum inhibitory concentration (MIC, μg/ml) of a test compound was determined by means of a standard agar plate dilution method (based on the standard method of Japan Society of Chemotherapy). Media used in the experiment were Mueller-Hinton agar (MHA; product of Nissui).

[4] = tested on: Pseudomonas aeruginosa PI-67; assay: as above; format: cell-based; details: PI67, Mueller-Hinton agar, read-out: M.I.C. (minimum inhibitory concentration)
Experimental: as §2, §3

C=CC[n+]1ccccc1SCC1=C(C(=O)[O-])N2C(=O)C(NC(=O)/C(=N\O[C@H]3CCNC3=O)c3csc(N)n3)C2SC1 (stereo partly drawn) [Test Compound 3, 7β-{(Z)-2-(2-aminothiazol-4-yl)-2-[((3S)-2-oxopyrrolidin-3-yl)oxyimino]acetamido}-3-(1-allyl-2-pyridinio)thiomethyl-3-cephem-4-carboxylate]
ED50 [1]: 10.8 mg/kg | ED50 [2]: 0.4 mg/kg | MIC [3]: 1.56 µg/mL (≈ 2.53 µM) | MIC [4]: 3.13 µg/mL (≈ 5.08 µM)

C[n+]1ccccc1SCC1=C(C(=O)[O-])N2C(=O)C(NC(=O)/C(=N\O[C@H]3CCNC3=O)c3csc(N)n3)C2SC1 (stereo partly drawn) [Test Compound 2, 7β-{(Z)-2-(2-aminothiazol-4-yl)-2-[((3S)-2-oxopyrrolidin-3-yl)oxyimino]acetamido}-3-(1-methyl-2-pyridinio)thiomethyl-3-cephem-4-carboxylate]
ED50 [1]: 15.8 mg/kg | ED50 [2]: 0.25 mg/kg | MIC [3]: 0.78 µg/mL (≈ 1.32 µM) | MIC [4]: 1.56 µg/mL (≈ 2.65 µM)

C[n+]1ccc(SCC2=C(C(=O)[O-])N3C(=O)C(NC(=O)/C(=N\O[C@H]4CCNC4=O)c4csc(N)n4)C3SC2)cc1 (stereo partly drawn) [Test Compound 1, 7β-{(Z)-2-(2-aminothiazol-4-yl)-2-[((3S)-2-oxopyrrolidin-3-yl)oxyimino]acetamido}-3-(1-methyl-4-pyridinio)thiomethyl-3-cephem-4-carboxylate]
ED50 [1]: 12.3 mg/kg | ED50 [2]: 0.14 mg/kg | MIC [3]: 0.78 µg/mL (≈ 1.32 µM) | MIC [4]: 0.78 µg/mL (≈ 1.32 µM)
